Measured values as given in patent publication US20230183193A1, “4-DIFLUOROMETHYL BENZOYL AMIDES WITH HERBICIDAL ACTION” (BAYER CROPSCIENCE AKTIENGESELLSCHAFT, priority 2017, published 2023).

Legend:
Assay type in all cases: in vivo
Abutilon theophrasti [1] = test: Pre-emergence herbicidal action, ABUTH; details: dosage 320 g/ha, scored visually after 3 weeks vs untreated controls
How it was run: (§1)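 Percent herbicidal activity rated by eye 3 weeks after pre-emergence soil-surface application, compared with untreated pots. Seeds sat under sandy loam; sprays carried 0.2% wetting agent.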

Viola tricolor [2] = test: Pre-emergence herbicidal action, VIOTR; details: dosage 320 g/ha, scored visually after 3 weeks vs untreated controls
How it was run: as §1

Alopecurus myosuroides [3] = test: Pre-emergence herbicidal action, ALOMY; details: dosage 320 g/ha, scored visually after 3 weeks vs untreated controls
How it was run: as §1

ECHCG = test: Post-emergence herbicidal action, ECHCG; details: 80 g/ha, Table C
How it was run: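 Weed and crop plants grown in sandy loam in the greenhouse, treated at the one-leaf stage 2–3 weeks after sowing. Damage scored visually after about 3 weeks vs untreated controls (0% = control, 100% = dead).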

Amaranthus retroflexus [4] = test: Post-emergence herbicidal action, AMARE; details: 80 g/ha, Table D
How it was run: (§2)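 Herbicidal effect is rated visually as percent versus untreated plants (100% = dead, 0% = like control) about 3 weeks after spraying. Plants were sown in sandy loam in the greenhouse and sprayed on green parts at the one-leaf stage, 2 to 3 weeks post-sowing.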

Stellaria media [5] = test: Pre-emergence herbicidal action, STEME; details: dosage 320 g/ha, scored visually after 3 weeks vs untreated controls
How it was run: as §1

Alopecurus myosuroides [6] = test: Post-emergence herbicidal action, ALOMY; details: 80 g/ha, Table C
How it was run: as §2

Stellaria media [7] = test: Post-emergence herbicidal action, STEME; details: 80 g/ha, Table D
How it was run: as §2

Viola tricolor [8] = test: Post-emergence herbicidal action, VIOTR; details: 80 g/ha, Table D
How it was run: as §2

Pharbitis purpureum = test: Post-emergence herbicidal action, PHBPU; details: 80 g/ha, Table D
How it was run: as §2

Avena fatua [9] = test: Post-emergence herbicidal action, AVEFA; details: 80 g/ha, Table C
How it was run: as §2

Amaranthus retroflexus [10] = test: Pre-emergence herbicidal action, AMARE; details: dosage 320 g/ha, scored visually after 3 weeks vs untreated controls
How it was run: as §1

Matricaria inodora = test: Pre-emergence herbicidal action, MATIN; details: dosage 320 g/ha, scored visually after 3 weeks vs untreated controls
How it was run: as §1

Avena fatua [11] = test: Pre-emergence herbicidal action, AVEFA; details: dosage 320 g/ha, scored visually after 3 weeks vs untreated controls
How it was run: as §1

Cyperus serotinus = test: Pre-emergence herbicidal action, CYPES; details: dosage 320 g/ha, scored visually after 3 weeks vs untreated controls
How it was run: as §1

Setaria viridis [12] = test: Post-emergence herbicidal action, SETVI; details: 80 g/ha, Table C
How it was run: as §2

Abutilon theophrasti [13] = test: Post-emergence herbicidal action, ABUTH; details: 80 g/ha, Table D
How it was run: as §2

Setaria viridis [14] = test: Pre-emergence herbicidal action, SETVI; details: dosage 320 g/ha, scored visually after 3 weeks vs untreated controls
How it was run: as §1

Row | SMILES | herbicidal activity ABUTH (Abutilon theophrasti [1]) [%] | herbicidal activity VIOTR (Viola tricolor [2]) [%] | herbicidal activity ALOMY (Alopecurus myosuroides [3]) [%] | Herbicidal activity ECHCG (ECHCG) [%] | herbicidal activity AMARE (Amaranthus retroflexus [4]) [%] | Herbicidal activity STEME (Stellaria media [5]) [%] | herbicidal activity ALOMY (Alopecurus myosuroides [6]) [%] | Herbicidal activity STEME (Stellaria media [7]) [%] | herbicidal activity VIOTR (Viola tricolor [8]) [%] | Herbicidal activity PHBPU (Pharbitis purpureum) [%] | herbicidal activity AVEFA (Avena fatua [9]) [%] | herbicidal activity AMARE (Amaranthus retroflexus [10]) [%] | herbicidal activity MATIN (Matricaria inodora) [%] | herbicidal activity AVEFA (Avena fatua [11]) [%] | herbicidal activity CYPES (Cyperus serotinus) [%] | herbicidal activity SETVI (Setaria viridis [12]) [%] | herbicidal activity ABUTH (Abutilon theophrasti [13]) [%] | herbicidal activity SETVI (Setaria viridis [14]) [%]
1 | Cn1nnnc1NC(=O)c1ccc(C(F)F)c(S(C)(=O)=O)c1F [Example 1-39] | 100 | 100 | 90 | 90 | 100 | 100 | 90 | 100 | 100 | 100 | 80 | 100 | 100 | 100 | 90 | 100 | 90 | 100
2 | CCSc1c(C(F)F)ccc(C(=O)Nc2ncnn2C)c1Cl [Example 4-52] | 100 | 100 | 100 | 100 | 100 | 100 | 90 | 90 | 90 | 100 | 100 | 100 | 100 | 100 | 80 | 100 | 90 | 100
3 | CC[S+]([O-])c1c(C(F)F)ccc(C(=O)Nc2nnnn2C)c1F (stereo not drawn) [Example 1-41] | 100 | 100 | 100 | 90 | 100 | 100 | 90 | 100 | 100 | 90 | 100 | 100 | 100 | 100 | 100 | 90 | 100 | 100
4 | CCSc1c(C(F)F)ccc(C(=O)Nc2nnnn2C)c1Br [Example 1-64] | 100 | 100 | 100 | 90 | 100 | 100 | 90 | 100 | 100 | 100 | 100 | 100 | 100 | 100 | 100 | 90 | 100 | 100
5 | CCS(=O)(=O)c1c(C(F)F)ccc(C(=O)Nc2nnnn2C)c1C1CC1 [Example 1-30] | 100 | 100 | 100 | 100 | 90 | 100 | 100 | 100 | 100 | 90 | 100 | 100 | 100 | 100 | 90 | 100 | 100 | 100
6 | CC[S+]([O-])c1c(C(F)F)ccc(C(=O)Nc2nnnn2C)c1C (stereo not drawn) [Example 1-5] | 100 | 100 | 100 | 100 | 100 | 90 | 100 | 100 | 100 | 100 | 100 | 100 | 100 | 100 | 100 | 100 | 90 | 100
7 | CCn1nnnc1NC(=O)c1ccc(C(F)F)c(S(C)(=O)=O)c1C [Example 2-3] | 100 | 100 | 90 | 90 | 80 | 90 | 80 | 100 | 100 | 100 | 90 | 100 | 100 | 100 | 100 | 100 | 80 | 100
8 | CCc1c(C(=O)Nc2nnc(C)o2)ccc(C(F)F)c1[S+]([O-])CC (stereo not drawn) [Example 7-15] | 100 | 100 | 100 | 90 | 100 | 100 | 90 | 100 | 100 | 90 | 100 | 100 | 100 | 100 | 100 | 100 | 100 | 100
9 | CCSc1c(C(F)F)ccc(C(=O)Nc2nnc(C)o2)c1Br [Example 7-62] | 100 | 100 | 100 | 100 | 100 | 100 | 90 | 100 | 100 | 90 | 100 | 100 | 90 | 90 | 80 | 100 | 100 | 100
10 | CSc1c(C(F)F)ccc(C(=O)Nc2nnnn2C)c1F [Example 1-37] | 100 | 100 | 100 | 100 | 100 | 100 | 80 | 100 | 100 | 90 | 100 | 100 | 100 | 100 | 100 | 100 | 90 | 100
11 | CC[S+]([O-])c1c(C(F)F)ccc(C(=O)Nc2nnnn2C)c1C1CC1 (stereo not drawn) [Example 1-29] | 100 | 100 | 100 | 100 | 100 | 100 | 100 | 100 | 100 | 100 | 90 | 100 | 100 | 100 | 100 | 100 | 100 | 100
